Legend:
c-Cbl = c-Cbl (Homo sapiens (Human), UniProt P22681); assay: C-Cbl LCK Ub TR-FRET assay (c-cbl Lck HTRF); format: biochemical; settings: for (fold-selectivity): C-cbl Lck HTRF IC50 relative to Cbl-b Lck HTRF IC50
How it was run: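 Detection reagents added, brief spin, 20 min RT. IC50 fit normalized to no-LCK (low) and DMSO (high) controls.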

Cbl-b = Cbl-b (Homo sapiens (Human), UniProt Q13191); assay: Cbl-b LCK Ub TR-FRET assay (Cbl-b Lck HTRF); format: biochemical
How it was run: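 TR-FRET (340 nm excitation, 615/665 nm emission) read after adding HA-ubiquitin–UBE2D2 thioester, anti-HA-D2 and streptavidin-Eu. Beforehand, compounds incubated 60 min with biotinylated Cbl-b, then 90 min with His-LCK and ATP (1 mM in 2× mix); IC50 from 10 concentrations, DMSO high and no-LCK low controls.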

Chain of c-Cbl (P22681 47-435): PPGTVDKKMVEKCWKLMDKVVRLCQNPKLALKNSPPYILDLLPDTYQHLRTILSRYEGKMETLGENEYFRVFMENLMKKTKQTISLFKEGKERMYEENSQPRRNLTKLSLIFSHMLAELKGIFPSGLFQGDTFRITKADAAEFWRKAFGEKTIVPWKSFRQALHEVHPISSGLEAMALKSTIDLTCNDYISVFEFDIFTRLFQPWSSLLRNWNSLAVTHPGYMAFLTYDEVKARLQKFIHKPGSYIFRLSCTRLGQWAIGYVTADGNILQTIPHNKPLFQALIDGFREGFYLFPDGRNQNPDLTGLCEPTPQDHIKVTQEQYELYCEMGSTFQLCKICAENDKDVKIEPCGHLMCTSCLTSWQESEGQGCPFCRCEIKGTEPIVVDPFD
Chain of Cbl-b (Q13191 40-426): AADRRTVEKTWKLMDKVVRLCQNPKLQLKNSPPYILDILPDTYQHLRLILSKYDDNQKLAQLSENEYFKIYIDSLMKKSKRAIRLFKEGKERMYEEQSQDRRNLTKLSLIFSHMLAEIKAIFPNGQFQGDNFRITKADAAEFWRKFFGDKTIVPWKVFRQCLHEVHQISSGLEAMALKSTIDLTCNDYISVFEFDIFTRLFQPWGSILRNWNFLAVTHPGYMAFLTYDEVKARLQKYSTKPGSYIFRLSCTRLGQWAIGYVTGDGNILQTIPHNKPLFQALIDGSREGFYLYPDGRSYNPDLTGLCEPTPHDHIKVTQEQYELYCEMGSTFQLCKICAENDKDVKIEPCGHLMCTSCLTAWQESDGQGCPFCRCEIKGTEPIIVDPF

IC50 (c-Cbl)	(fold-selectivity) (c-Cbl)	IC50 (Cbl-b)	SMILES
8300 nM	(1.5x)	5600 nM	CC(C)[C@H]1CN(C)CCN1Cc1cc2c(c(C(F)(F)F)c1)CN(c1cccc(C3([C@H](F)c4nncn4-c4ccccc4)COC3)c1)C2=O [Compound 260, 2-(3-(3-((S)-fluoro(4-phenyl-4H-1,2,4-triazol-3-yl)methyl)oxetan-3-yl)phenyl)-6-(((S)-2-isopropyl-4-methylpiperazin-1-yl)methyl)-4-(trifluoromethyl)isoindolin-1-one]
59 nM	(1.3x)	45 nM	Cc1ccnn1CC1(c2cccc(N3Cc4c(cc(CN5CCN(C)C[C@@H]5C(C)C)cc4C(F)(F)F)C3=O)c2)COC1 [Compound 263, (S)-6-((2-isopropyl-4-methylpiperazin-1-yl)methyl)-2-(3-(3-((5-methyl-1H-pyrazol-1-yl)methyl)oxetan-3-yl)phenyl)-4-(trifluoromethyl)isoindolin-1-one]
11000 nM	(1.5x)	7100 nM	Cc1ccn(CC2(c3cccc(N4Cc5c(cc(CN6CCN(C)C[C@@H]6C(C)C)cc5C(F)(F)F)C4=O)c3)COC2)n1 [Compound 264, (S)-6-((2-isopropyl-4-methylpiperazin-1-yl)methyl)-2-(3-(3-((3-methyl-1H-pyrazol-1-yl)methyl)oxetan-3-yl)phenyl)-4-(trifluoromethyl)isoindolin-1-one]
1300 nM	(1.4x)	880 nM	Cn1cnnc1CC1(c2cc(C3CCC3)nc(N3Cc4c(cccc4C(F)(F)F)C3=O)c2)COC1 [Compound 265, 2-(6-cyclobutyl-4-(3-((4-methyl-4H-1,2,4-triazol-3-yl)methyl)oxetan-3-yl)pyridin-2-yl)-4-(trifluoromethyl)isoindolin-1-one]
9.7 nM	(0.76x)	13 nM	CC(C)[C@H]1CN(C)CCN1Cc1cc2c(c(C(F)(F)F)c1)CN(c1cccc(C3(Cc4nncn4C(F)F)COC3)c1)C2=O [Compound 266, (S)-2-(3-(3-((4-(difluoromethyl)-4H-1,2,4-triazol-3-yl)methyl)-oxetan-3-yl)phenyl)-6-((2-isopropyl-4-methylpiperazin-1-yl)methyl)-4-(trifluoromethyl)-isoindolin-1-one]
17 nM	(1.0x)	17 nM	CC(C)[C@H]1CN(C)CCN1Cc1cc2c(c(C(F)(F)F)c1)CN(c1cccc(C3([C@@H](F)c4nncn4C(F)F)COC3)c1)C2=O [Compound 267, 2-(3-(3-((R)-(4-(difluoromethyl)-4H-1,2,4-triazol-3-yl)fluoromethyl)oxetan-3-yl)phenyl)-6-(((S)-2-isopropyl-4-methylpiperazin-1-yl)methyl)-4-(trifluoromethyl)isoindolin-1-one]
11 nM	(0.68x)	16 nM	CC(C)[C@H]1CN(C)CCN1Cc1cc2c(c(C(F)(F)F)c1)CN(c1cccc(C3([C@H](F)c4nncn4C(F)F)COC3)c1)C2=O [Compound 268, 2-(3-(3-((S)-(4-(difluoromethyl)-4H-1,2,4-triazol-3-yl)fluoromethyl)oxetan-3-yl)phenyl)-6-(((S)-2-isopropyl-4-methylpiperazin-1-yl)methyl)-4-(trifluoromethyl)isoindolin-1-one]
470 nM	(2.3x)	210 nM	CC(C)[C@H]1CN(C)CCN1Cc1cc2c(c(C(F)(F)F)c1)CN(c1cccc(C3([C@@H](F)c4nc(F)cn4C)COC3)c1)C2=O [Compound 269, 2-(3-(3-((R)-fluoro(4-fluoro-1-methyl-1H-imidazol-2-yl)methyl)oxetan-3-yl)phenyl)-6-(((S)-2-isopropyl-4-methylpiperazin-1-yl)methyl)-4-(trifluoromethyl)isoindolin-1-one]
350 nM	(2.6x)	130 nM	CC(C)[C@H]1CN(C)CCN1Cc1cc2c(c(C(F)(F)F)c1)CN(c1cccc(C3([C@H](F)c4nc(F)cn4C)COC3)c1)C2=O [Compound 270, 2-(3-(3-((S)-fluoro(4-fluoro-1-methyl-1H-imidazol-2-yl)methyl)oxetan-3-yl)phenyl)-6-(((S)-2-isopropyl-4-methylpiperazin-1-yl)methyl)-4-(trifluoromethyl)isoindolin-1-one]
1900 nM	(1.2x)	1600 nM	CCn1cnnc1[C@@H](F)C1(c2cccc(N3Cc4c(cccc4C(F)(F)F)C3=O)c2)COC1 [Compound 271, (S)-2-(3-(3-((4-ethyl-4H-1,2,4-triazol-3-yl)fluoromethyl)oxetan-3-yl)phenyl)-4-(trifluoromethyl)isoindolin-1-one]
11000 nM	(1.3x)	8200 nM	CCn1cnnc1[C@H](F)C1(c2cccc(N3Cc4c(cccc4C(F)(F)F)C3=O)c2)COC1 [Compound 272, (R)-2-(3-(3-((4-ethyl-4H-1,2,4-triazol-3-yl)fluoromethyl)oxetan-3-yl)phenyl)-4-(trifluoromethyl)isoindolin-1-one]
220 nM	(1.6x)	140 nM	CC[C@@H]1CCC[C@H](c2cc3c(c(C(F)(F)F)c2)CN(c2cccc(C4(Cc5nncn5C)CC(F)(F)C4)c2)C3=O)N1 [Compound 274, 2-(3-(3,3-difluoro-1-((4-methyl-4H-1,2,4-triazol-3-yl)methyl)cyclobutyl)phenyl)-6-((2R,6R)-6-ethylpiperidin-2-yl)-4-(trifluoromethyl)isoindolin-1-one]
7 nM	(1.0x)	7 nM	C=CCNc1cc(C2(Cc3nncn3C)CCC2)cc(N2Cc3c(cc(CN4CCN(C)C[C@@H]4C(C)C)cc3C(F)(F)F)C2=O)n1 [Compound 275, (S)-2-(6-(allylamino)-4-(1-((4-methyl-4H-1,2,4-triazol-3-yl)methyl)cyclobutyl)pyridin-2-yl)-6-((2-isopropyl-4-methylpiperazin-1-yl)methyl)-4-(trifluoromethyl)isoindolin-1-one]
870 nM	(3.8x)	230 nM	CNCc1cc2c(c(C(F)(F)F)c1)CN(c1cc(C3(Cc4nncn4C)COC3)cc(NC3CCCC3)n1)C2=O [Compound 277, 2-(6-(cyclopentylamino)-4-(3-((4-methyl-4H-1,2,4-triazol-3-yl)methyl)oxetan-3-yl)pyridin-2-yl)-6-((methylamino)methyl)-4-(trifluoromethyl)isoindolin-1-one]
15 nM	(1.2x)	12 nM	CC(C)[C@H]1CN(C)CCN1Cc1cc2c(c(C(F)(F)F)c1)CN(c1cc(C3([C@@H](F)c4nncn4C)CCC3)cc(NCC3CC3)n1)C2=O [Compound 278, 2-(6-((cyclopropylmethyl)amino)-4-(1-((R)-fluoro(4-methy-4H-1,2,4-triazol-3-yl)methyl)cyclobutyl)pyridin-2-yl)-6-(((S)-2-isopropyl-4-methylpiperazin-1-yl)methyl)-4-(trifluoromethyl)isoindolin-1-one]
10 nM	(1.4x)	7.9 nM	CC(C)[C@H]1CN(C)CCN1Cc1cc2c(c(C(F)(F)F)c1)CN(c1cc(C3([C@H](F)c4nncn4C)CCC3)cc(NCC3CC3)n1)C2=O [Compound 279, 2-(6-((cyclopropylmethyl)amino)-4-(1-((S)-fluoro(4-methyl-4H-1,2,4-triazol-3-yl)methyl)cyclobutyl)pyridin-2-yl)-6-(((S)-2-isopropyl-4-methylpiperazin-1-yl)methyl)-4-(trifluoromethyl)isoindolin-1-one]
11 nM	(0.96x)	12 nM	CC(C)[C@H]1CN(C)CCN1Cc1cc2c(c(C(F)(F)F)c1)CN(c1cc(C3(Cc4nncn4C)CC(F)(F)C3)cc(N(C)C)n1)C2=O [Compound 280, (S)-2-(4-(3,3-difluoro-1-((4-methyl-4H-1,2,4-triazol-3-yl)methyl)cyclobutyl)-6-(dimethylamino)pyridin-2-yl)-6-((2-isopropyl-4-methylpiperazin-1-yl)methyl)-4-(trifluoromethyl)isoindolin-1-one]
11 nM	(0.68x)	16 nM	CC(C)[C@H]1CN(C)CCN1Cc1cc(Cl)c2c(c1)C(=O)N(c1cccc(C3(Cc4nncn4C)CC(F)(F)C3)c1)C2 [Compound 281, (S)-4-chloro-2-(3-(3,3-difluoro-1-((4-methyl-4H-1,2,4-triazol-3-yl)methyl)cyclobutyl)phenyl)-6-((2-isopropyl-4-methylpiperazin-1-yl)methyl)isoindolin-1-one]
57 nM	(1.1x)	53 nM	Cn1cnnc1CC1(c2cccc(N3Cc4c(cc(CNC(C)(C)C)cc4C(F)(F)F)C3=O)c2)CC(F)(F)C1 [Compound 283, 6-((tert-butylamino)methyl)-2-(3-(3,3-difluoro-1-((4-methyl-4H-1,2,4-triazol-3-yl)methyl)cyclobutyl)phenyl)-4-(trifluoromethyl)isoindolin-1-one]
7.4 nM	(0.59x)	12 nM	Cn1cnnc1CC1(c2cc(C3CC3)nc(N3Cc4c(cc(CNC5(C)CCC5)cc4C(F)(F)F)C3=O)c2)CCC1 [Compound 284, 2-(6-cyclopropyl-4-(1-((4-methyl-4H-1,2,4-triazol-3-yl)methyl)cyclobutyl)pyridin-2-yl)-6-(((1-methylcyclobutyl)amino)methyl)-4-(trifluoromethyl)isoindolin-1-one]

— patent US20250230147A1, “LACTAMS AS CBL-B INHIBITORS” (Genentech, Inc., priority 2021, published 2025)
